Laboratory results published in BigSolDB 2.1.

O=C(O)/C=C/c1cccc(O)c1
solubility (mole fraction)
Conditions	in ethanol	in ethyl acetate	in isobutanol	in isopropanol	in methanol	in methyl acetate	in n-butanol	in n-propanol	in n-propyl acetate
293.15 K	0.0594	0.0177	0.0317	0.0611	0.0516	0.0189	0.0474	0.0493	0.0155
298.15 K	0.0632	0.0201	0.0351	0.0662	0.0557	0.0212	0.0513	0.0533	0.0184
303.15 K	0.0687	0.0228	0.0397	0.0724	0.0611	0.0239	0.0566	0.0585	0.0212
308.15 K	0.0742	0.0256	0.0449	0.0794	0.0669	0.0276	0.0617	0.064	0.0236
313.15 K	0.0802	0.0294	0.0502	0.0859	0.0731	0.0315	0.0677	0.0701	0.0269
318.15 K	0.087	0.0329	0.0561	0.0933	0.0801	0.0358	0.0741	0.0766	0.0302
323.15 K	0.0949	0.0377	0.0628	0.101	0.0887	0.0402	0.0806	0.0842	0.035
328.15 K	0.103	0.0438	0.0706	0.109	0.0995	0.0458	0.0887	0.093	0.041
333.15 K	0.114	0.0489	0.0802	0.12	0.113	–	0.0989	0.104	0.0471
